This is an account of results in ChEMBL document CHEMBL4311962, “Benzofuran-isatin hybrids and their in vitro anti-mycobacterial activities against multi-drug resistant Mycobacterium tuberculosis” (Eur J Med Chem, 2019).

Series [1] can be described thus: Cytotoxicity against CHO cells assessed as reduction in cell viability incubated for 72 hrs by MTT assay. It is filed as cell-based, Cricetulus griseus. The note with it: chinese hamster. For orientation: Formazan colour is commonly taken as a measure of viable cells.
Series [2] can be described thus: Metabolic stability in SPF ICR mouse liver microsomes assessed as half life […]. It is filed as ADME, Microsome.
Series [3] can be described thus: AUC (0 to infinity) in SPF ICR mouse at 25 mg/kg, po administered as single dose measured for 0.25 to 24 hrs. It is filed as ADME, organism-based. Further details: dose 25 mg/kg, time infinity, route oral. Particulars: in vivo.
Series [4] can be described thus: Tmax in SPF ICR mouse at 25 mg/kg, po administered as single dose measured for 0.25 to 24 hrs. Format: ADME, organism-based. Particulars: in vivo.
A short description of series [5]: Elimination half life in SPF ICR mouse at 25 mg/kg, po administered as single dose measured for 0.25 to 24 hrs. Format: ADME, organism-based. Particulars: in vivo, read-out: beta t1/2 (converted).
Series [6] in a line: Cmax in SPF ICR mouse at 25 mg/kg, po administered as single dose measured for 0.25 to 24 hrs. More on the design: dose 25 mg/kg, route oral. The note with it: in vivo. Format: ADME, organism-based.

Some results are limits rather than exact numbers.

`CCOC(=O)c1c(-c2ccc(F)cc2)oc2ccc(OCCCCCCN3C(=O)/C(=N/OC)c4ccccc43)cc12`: the CC50 (usually the concentration at which the toxic effect on the cells reaches its halfway point) at 72 h in series [1] was found to be 128 µM.

Consider `CCO/N=C1\C(=O)N(CCCCCCOc2ccc3oc(-c4ccc(F)cc4)c(C(=O)OCC)c3c2)c2ccc(OC)cc21`, for which the CC50 at 72 h in series [1] stood at 256 µM.

Regarding `CCOC(=O)c1c(-c2ccc(OC)cc2)oc2ccc(OCCCCN3C(=O)C(=O)c4ccccc43)cc12`, the CC50 at 72 h in series [1] stood at 256 µM. Same read-out and setting: the result for `CO[C@H]1/C=C/O[C@@]2(C)Oc3c(C)c(O)c4c(O)c(c(/C=N/N5CCN(C)CC5)c(O)c4c3C2=O)NC(=O)/C(C)=C\C=C\[C@H](C)[C@H](O)[C@@H](C)[C@@H](O)[C@@H](C)[C@H](OC(C)=O)[C@@H]1C` [RIFAMPIN] reads 512 µM; that for `CCOC(=O)c1c(-c2ccc(F)cc2)oc2ccc(OCCCCCCN3C(=O)C(=O)c4cc(OC)ccc43)cc12`, 256 µM; that for `CCOC(=O)c1c(-c2ccccc2)oc2ccc(OCCCCCCN3C(=O)C(=O)c4ccccc43)cc12`, 128 µM.

With `CCOC(=O)c1c(-c2ccc(F)cc2)oc2ccc(OCCCN3C(=O)C(=O)c4ccccc43)cc12`, the CC50 at 72 h in series [1] came out at 256 µM. As for `CCOC(=O)c1c(-c2ccc(F)cc2)oc2ccc(OCCN3C(=O)C(=O)c4cc(OC)ccc43)cc12`, the CC50 at 72 h in series [1] amounted to 512 µM. In the case of `CCOC(=O)c1c(-c2ccccc2)oc2ccc(OCCCN3C(=O)/C(=N/O)c4cc(OC)ccc43)cc12`, the CC50 at 72 h in series [1] amounted to 512 µM. On the same count and under the same terms, under `CCOC(=O)c1c(-c2ccc(F)cc2)oc2ccc(OCCN3C(=O)C(=O)c4ccccc43)cc12` stands 128 µM. With `CCOC(=O)c1c(-c2ccc(F)cc2)oc2ccc(OCCCN3C(=O)/C(=N/O)c4ccccc43)cc12`, in series [1], the CC50 at 72 h stood at 256 µM. Turning to `CCOC(=O)c1c(-c2ccc(F)cc2)oc2ccc(OCCN3C(=O)C(=O)c4cc(F)ccc43)cc12`, the CC50 at 72 h in series [1] was 64 µM.

`CCOC(=O)c1c(-c2ccc(F)cc2)oc2ccc(OCCCCCCN3C(=O)/C(=N\O)c4cc(OC)ccc43)cc12`: the CC50 at 72 h in series [1] was 512 µM. For `CCOC(=O)c1c(-c2ccc(OC)cc2)oc2ccc(OCCCN3C(=O)C(=O)c4cc(F)ccc43)cc12`, the CC50 at 72 h in series [1] was 64 µM.

Consider `NNC(=O)c1ccncc1` [ISONIAZID], for which, in series [1], the CC50 at 72 h turned out to be 256 µM. As for `CNC(=O)c1c(-c2ccc(O)cc2)oc2ccc(O)c(CN3CCCCC3)c12`, in series [1], the CC50 at 72 h is over 1020 µM. Moreover, the half-life in series [2] was over 1 h. With `CCOC(=O)c1c(-c2ccccc2)oc2ccc(OCCCN3C(=O)C(=O)c4ccccc43)cc12`, the half-maximal cytotoxic concentration (CC50) at 72 h in series [1] is 256 µM.

Turning to `CCOC(=O)c1c(-c2ccccc2)oc2ccc(OCCCN3C(=O)C(=O)c4cc(OC)ccc43)cc12`, in series [1], the CC50 at 72 h came out at 512 µM. As for `CCOC(=O)c1c(-c2ccc(OC)cc2)oc2ccc(OCCCCCCN3C(=O)/C(=N/NC(N)=S)c4cc(F)ccc43)cc12`, the total exposure AUC(0-inf) – broadly, total exposure, with the tail of the curve extrapolated – in series [3] came to 3800 ng·h/mL. The Tmax (commonly the time at which the peak concentration occurs) in series [4] worked out at 1.81 h. The CC50 at 72 h in series [1] was 128 µM. Moreover, the figures for the half-life in series [5] and in series [2] were 2.32 h and 0.29 h, respectively. The concentration in series [6] peaked (Cmax) at 2540 ng/mL. Take `CCOC(=O)c1c(-c2ccccc2)oc2ccc(OCCCN3C(=O)/C(=N/O)c4ccccc43)cc12`: the cytotoxic concentration (CC50) at 72 h in series [1] was found to be 512 µM. Same read-out and setting: under `CCOC(=O)c1c(-c2ccccc2)oc2ccc(OCCN3C(=O)C(=O)c4cc(F)ccc43)cc12` stands 64 µM; under `CCOC(=O)c1c(-c2ccc(OC)cc2)oc2ccc(OCCCCCN3C(=O)C(=O)c4ccccc43)cc12`, 128 µM.
